Columns and labels:
[1] = Achievable concentration and density of concentrated LDEE salt solutions
Description: The pH was adjusted to 4.60 by adding 160 mg of sodium acetate.

[2] = Estimated / projected shelf life and operational life (time to LD saturation); settings: for storage time without LD precipitation: 2.5±0.5 M aqueous; for time remaining precipitate free: after 18 months refrigerated storage
Description: To minimize hydrolysis and LD precipitation, the LDE salt can be stored in its dry solid form, and dissolved in water or in an aqueous solution prior to use. Alternatively and preferably, the LDE salt can be dissolved, and stored as an aqueous solution at a pH and at a temperature where the rate of hydrolysis is slow. […] The operational life, meaning the life of the infused solution, is similarly pH dependent. The pH of a subcutaneously infused solution can be generally greater than about 4.0. […] To extend the shelf life, the solution may be optionally stored at a temperature below about 25° C., for example it may be refrigerated at about 5±3° C.
After flushing with nitrogen, the solution was kept for 7 days at 23±2° C. in a vial sealed with a grey elastomeric, substantially oxygen impermeable septum. […] An operational life of 4 days suffices for infusion.
After flushing with nitrogen, the solution was kept in a vial sealed with a grey, elastomeric oxygen impermeable septum.
After flushing with nitrogen, the solution was kept in a vial sealed with a grey elastomeric, oxygen impermeable septum.

[3] = pH change of LDEE.HCl solutions on holding; assay type: physicochemical; settings: 40° C.
Description: An about 2.6 M LDEE.HCl pH 2.1 aqueous solution was prepared by dissolving 1.506 g LDEE in 1.3 mL of aqueous 5M HCl and adjusting the pH by adding 0.24 μL of 1 M HCl. […] After 24 hours, the pH was 2.0.
To determine whether hydrolysis of subcutaneously infusible solutions of 0.95 M and 0.48 M LDEE.HCl concentrations excessively lowers their pH or drives their LD concentration beyond the saturation point where LD could precipitate, their starting pH of less <3 adjusted by adding an about 1.5 M trisodium citrate solution, were kept at 40° C. for 24 hrs.

CCOC(=O)[C@@H](N)Cc1ccc(O)c(O)c1.Cl [LDEE.HCl, LDEE Hydrochloride]
concentration of aqueous solutions allowed by solubility ([1]; aqueous solution): greater than 2.5 M
concentration of clear solution (high solubility) ([1]; pH 4.60 (sodium acetate), ambient about 23±2° C.): about 2.5 M
projected storage (shelf) life ([2]; 2.5 M solution at 4° C. (per Example 18)): greater than 4 years
projected shelf life ([2]; 2.5 M solution, pH 2.3, about 4° C.): about 4.7 years
operational life (time to LD saturation) ([2]; 2.5 M, pH 4.5 citrate, 29° C.-30° C.): 4 days
operational life, projection ([2]; 2.5 M, pH 4.5 citrate, 37° C. body temperature): about 2 days
operational life (time to LD saturation) ([2]; 2.5 M, pH 4.5 citrate, about 23° C.): about 9 days
storage time without LD precipitation ([2]; pH 2.5±0.5, about 5±3° C.): about 3 years
storage time without LD precipitation ([2]; pH about 1.5 to about 3.5, about 5±3° C.): more than 1 year
% of the LDEE.HCl hydrolyzed at which LD saturation is reached ([2]; 2.7 M LDEE.HCl, LD saturation about 17 grams per liter): about 3.4%
Estimated pH 2.3 storage life at 4° C. ([2]; about 2.0 M LDEE.HCl solution): 50 months
Estimated pH 2.3 storage life at 25° C. ([2]; about 2.0 M LDEE.HCl solution): 2 months
Estimated pH 4.5 operational life at 30° C. ([2]; about 2.0 M LDEE.HCl solution): 4 days
Estimated pH 4.5 operational life at 37° C. ([2]; about 2.0 M LDEE.HCl solution): 2 days
operational life ([2]; about 2.7 M, about pH 4.49, 40° C.): > 48 h
residual operational life ([2]; after 18 months at 4° C., then operational ambient temperature): more than 3 days
time remaining precipitate free ([2]; pH raised to about 4.2±0.3, 30° C.): more than 3 days
time remaining precipitate free ([2]; pH raised to about 4.2±0.3, 37° C.): more than 2 days
residual operational life ([2]; after one year at 4° C., then 23° C. ambient): greater than 4 days
projected time free of LD precipitate ([2]; refrigerated pH 4.0 solution, 2.4 M): about 50 weeks
pH of about 0.48M LDEE•HCl Solution ([3]; 0 h, starting pH 4.19): 4.19
pH of about 0.95M LDEE•HCl Solution ([3]; 0 h, starting pH 4.2): 4.2
pH of about 0.95M LDEE•HCl Solution ([3]; 0 h, starting pH 4.4): 4.4
pH of about 0.48M LDEE•HCl Solution ([3]; 0 h, starting pH 4.45): 4.45
pH of about 0.48M LDEE•HCl Solution ([3]; 0 h, starting pH 4.59): 4.59
pH of about 0.95M LDEE•HCl Solution ([3]; 0 h, starting pH 4.6): 4.6
pH of about 0.48M LDEE•HCl Solution ([3]; 0 h, starting pH 4.78): 4.78
pH of about 0.95M LDEE•HCl Solution ([3]; 0 h, starting pH 4.82): 4.82
pH of about 0.48M LDEE•HCl Solution ([3]; 0 h, starting pH 5.01): 5.01
pH of about 0.95M LDEE•HCl Solution ([3]; 0 h, starting pH 5.01): 5.01
pH of about 0.95M LDEE•HCl Solution ([3]; 0 h, starting pH 5.3): 5.3
pH of about 0.48M LDEE•HCl Solution ([3]; 0 h, starting pH 5.31): 5.31
pH of about 0.95M LDEE•HCl Solution ([3]; 0 h, starting pH 5.6): 5.6
pH of about 0.48M LDEE•HCl Solution ([3]; 0 h, starting pH 5.61): 5.61
pH of about 0.48M LDEE•HCl Solution ([3]; 2 h, starting pH 4.19): 4.43
pH of about 0.95M LDEE•HCl Solution ([3]; 2 h, starting pH 4.2): 4.19
pH of about 0.95M LDEE•HCl Solution ([3]; 2 h, starting pH 4.4): 4.38
pH of about 0.48M LDEE•HCl Solution ([3]; 2 h, starting pH 4.45): 4.58
pH of about 0.48M LDEE•HCl Solution ([3]; 2 h, starting pH 4.59): 4.68
pH of about 0.95M LDEE•HCl Solution ([3]; 2 h, starting pH 4.6): 4.61
pH of about 0.48M LDEE•HCl Solution ([3]; 2 h, starting pH 4.78): 4.85
pH of about 0.95M LDEE•HCl Solution ([3]; 2 h, starting pH 4.82): 4.74
pH of about 0.48M LDEE•HCl Solution ([3]; 2 h, starting pH 5.01): 5.01
pH of about 0.95M LDEE•HCl Solution ([3]; 2 h, starting pH 5.01): 5.01
pH of about 0.95M LDEE•HCl Solution ([3]; 2 h, starting pH 5.3): 5.34
pH of about 0.48M LDEE•HCl Solution ([3]; 2 h, starting pH 5.31): 5.42
pH of about 0.95M LDEE•HCl Solution ([3]; 2 h, starting pH 5.6): 5.68
pH of about 0.48M LDEE•HCl Solution ([3]; 2 h, starting pH 5.61): 5.65
pH of about 0.48M LDEE•HCl Solution ([3]; 6 h, starting pH 4.19): 4.34
pH of about 0.95M LDEE•HCl Solution ([3]; 6 h, starting pH 4.2): 4.02
pH of about 0.95M LDEE•HCl Solution ([3]; 6 h, starting pH 4.4): 4.28
pH of about 0.48M LDEE•HCl Solution ([3]; 6 h, starting pH 4.45): 4.54
pH of about 0.48M LDEE•HCl Solution ([3]; 6 h, starting pH 4.59): 4.6
pH of about 0.95M LDEE•HCl Solution ([3]; 6 h, starting pH 4.6): 4.53
pH of about 0.48M LDEE•HCl Solution ([3]; 6 h, starting pH 4.78): 4.71
pH of about 0.95M LDEE•HCl Solution ([3]; 6 h, starting pH 4.82): 4.69
pH of about 0.48M LDEE•HCl Solution ([3]; 6 h, starting pH 5.01): 4.9
pH of about 0.95M LDEE•HCl Solution ([3]; 6 h, starting pH 5.01): 4.84
pH of about 0.95M LDEE•HCl Solution ([3]; 6 h, starting pH 5.3): 5.21
pH of about 0.48M LDEE•HCl Solution ([3]; 6 h, starting pH 5.31): 5.23
pH of about 0.95M LDEE•HCl Solution ([3]; 6 h, starting pH 5.6): 5.53
pH of about 0.48M LDEE•HCl Solution ([3]; 6 h, starting pH 5.61): 5.53
pH of about 0.95M LDEE•HCl Solution ([3]; 24 h, starting pH 4.2): 3.86
pH of about 0.95M LDEE•HCl Solution ([3]; 24 h, starting pH 4.4): 4.03
pH of about 0.48M LDEE•HCl Solution ([3]; 24 h, starting pH 4.45): 4.19
pH of about 0.48M LDEE•HCl Solution ([3]; 24 h, starting pH 4.59): 4.32
pH of about 0.95M LDEE•HCl Solution ([3]; 24 h, starting pH 4.6): 4.22
pH of about 0.48M LDEE•HCl Solution ([3]; 24 h, starting pH 4.78): 4.52
pH of about 0.95M LDEE•HCl Solution ([3]; 24 h, starting pH 4.82): 4.36
pH of about 0.48M LDEE•HCl Solution ([3]; 24 h, starting pH 5.01): 4.6
pH of about 0.95M LDEE•HCl Solution ([3]; 24 h, starting pH 5.01): 4.58
pH of about 0.95M LDEE•HCl Solution ([3]; 24 h, starting pH 5.3): 4.8

Source: patent US20140088192A1, “SUBCUTANEOUSLY INFUSIBLE LEVODOPA PRODRUG COMPOSITIONS AND METHODS OF INFUSION” (SynAgile Corporation, priority 2010, published 2014)
